One block for each compound: values may come before it.
Tests used:
[1] = Liquid formulations with Vitamin E TPGS, ethanol and water (HPLC assay, visual observation); assay type: physicochemical; settings: ethanol less than two percent, water
[2] = test system: human coronary artery smooth muscle cells; assay: Anti-proliferative activity in synchronized cultured human coronary artery smooth muscle cells stimulated with two percent fetal bovine serum; assay type: cell-based
Text: (§1) The multiple curves represent various concentrations of topotecan ranging from zero to three hundred nanomolar concentrations.
(§2) The multiple curves represent various concentrations of etoposide ranging from zero to eight hundred nanomolar concentrations.
The multiple curves represent various concentrations of Panzem® ranging from zero to 100 micromolar concentrations.

[3] = test system: human coronary artery smooth muscle cell survival; assay: MTS cytotoxicity assay; assay type: cell-based; settings: concentrations up to 30,000.00 nanomolar (tested from 6.6 nanomolar)
Text: Typically, a control is utilized to determine baseline toxicity.

[4] = In vivo release kinetics from polymeric stent coatings in porcine pharmacokinetics studies
[5] = test system: human coronary artery smooth muscle cells; assay: Anti-proliferative activity in non-synchronized cultured human coronary artery smooth muscle cells stimulated with two percent fetal bovine serum; assay type: cell-based
Text: The multiple curves represent various concentrations of mycophenolic acid ranging from zero to one thousand nanomolar concentrations.
FIG. 58 illustrates, in graphical format, the anti-proliferative activity of cladribine in non-synchronized cultured human coronary artery smooth muscle cells stimulated with two percent fetal bovine serum.
The multiple curves represent various concentrations of cladribine ranging from zero to nine hundred nanomolar concentrations.

[6] = test system: human smooth muscle cells; assay: PDGF AB-stimulated proliferation of human smooth muscle cells (cell count, day six); assay type: cell-based; settings: from the IC50 values
Procedure: To assess the ability of cladribine to prevent cell proliferation, human smooth muscle or endothelial cells (Clonetics, Walkersville, Md.) were seeded at a density of 2000 cells/cm^2 (approximately 3600 cells/well) into each well of 12-well plates and cultured with 1.5 ml of growth medium containing five percent fetal calf serum (FCS). After twenty-four hours, the growth medium was changed and fresh medium containing 10 ng/ml platelet-derived growth factor AB (PDGF AB; LIFE Technologies), as well as various concentrations of cladribine (0.001-10,000 nM) were added with triplicate wells. Medium was replaced with fresh cladribine-containing medium after three days. On day six, cells were detached by trypsinization to yield a cell suspension, lightly centrifuged to pellet and then counted manually using a Neubauer hemocytometer system. Cell viability was assessed by trypan blue exclusion.

cell viability = assay: Cell viability assay; assay type: cell-based
Text: as §1, §2

[7] = test system: human coronary artery smooth muscle cell proliferation; assay: In vitro cell culture study of coronary artery smooth muscle cell proliferation; assay type: cell-based
Text: FIG. 51 is a graph of the inhibition of coronary artery smooth muscle cells by trichostatin A in a cell culture study.

tumor cell lines = settings: cited from earlier work

- concentration of CCI-779 in the final solution (HPLC assay) [1]: 15 mg/mi
SMILES: CO[C@H]1C[C@@H]2CC[C@@H](C)[C@@](O)(O2)C(=O)C(=O)N2CCCC[C@H]2C(=O)O[C@H]([C@H](C)C[C@@H]2CC[C@@H](OC(=O)C(C)(CO)CO)[C@H](OC)C2)CC(=O)[C@H](C)/C=C(\C)[C@@H](O)[C@@H](OC)C(=O)[C@H](C)C[C@H](C)/C=C/C=C/C=C/1C [CCI-779]

SMILES: COc1cc2c(cc1O)CC[C@@H]1[C@@H]2CC[C@]2(C)[C@@H](O)CC[C@@H]12 [Panzem®, 2-methoxyestradiol]
- effect of addition to cells treated with rapamycin on percent of inhibition ([2]; Panzem 0.813 to 100 micromolar): increases the percent of inhibition of rapamycin alone
- inhibition of human coronary artery smooth muscle cell proliferation in vitro ([2]; Panzem alone, synchronized cells): extremely effective inhibitor
- human coronary artery smooth muscle cell survival (MTS assay) [3]: do not reduce

- in vivo elution compared with rapamycin ([4]; EVA/BMA basecoat with rapamycin and cladribine, 200 μg BMA topcoat, Bx Velocity stents, Yorkshire pigs): elutes more rapidly than rapamycin
- in vivo elution from coating over time ([4]; PVDF/HFP (85/15) basecoat 1800 μg with thirty percent cladribine, 300 μg topcoat, Bx Velocity stents, Yorkshire pig, after the first day): levels off significantly
SMILES: Nc1nc(Cl)nc2c1ncn2[C@H]1C[C@H](O)[C@@H](CO)O1 [cladribine, 2-chlorodeoxyadenosine]
- effect of addition to cells treated with rapamycin on percent inhibition ([5]; cladribine 56.25 to 900 nanomolar): increases the percent inhibition of rapamycin alone
- inhibition of human coronary artery smooth muscle cell proliferation ([5]; non-synchronized cells, two percent fetal bovine serum): completely inhibits
- potency as inhibitor of smooth muscle cells relative to endothelial cells [6]: approximately twice

SMILES: COc1cc([C@@H]2c3cc4c(cc3[C@@H](O[C@@H]3O[C@@H]5CO[C@@H](C)O[C@H]5[C@H](O)[C@H]3O)[C@H]3COC(=O)[C@H]23)OCO4)cc(OC)c1O [etoposide]
- cytotoxicity in a cell viability assay (cell viability; concentrations up to ten micromolar): non-cytotoxic
- effect of addition to cells treated with rapamycin on percent inhibition ([2]; etoposide 255.7 to eight hundred nanomolar): increases the percent inhibition of rapamycin alone

SMILES: COc1c(C)c2c(c(O)c1C/C=C(\C)CCC(=O)O)C(=O)OC2 [mycophenolic acid]
- in vivo release from coating compared with rapamycin ([4]; EVA/BMA basecoat with 180 μg rapamycin and 180 μg mycophenolic acid, no, 100 or 200 μg BMA topcoat, porcine): elutes more completely over a shorter duration than the rapamycin
- effect on the anti-proliferative rapamycin dose response curve ([5]; mycophenolic acid zero to one thousand nanomolar added to cells treated with rapamycin): potentiates the anti-proliferative activity of rapamycin

SMILES: CO[C@H]1C[C@@H]2CC[C@@H](C)[C@@](O)(O2)C(=O)C(=O)N2CCCC[C@H]2C(=O)O[C@H]([C@H](C)C[C@@H]2CC[C@@H](O)[C@H](OC)C2)CC(=O)[C@H](C)/C=C(\C)[C@@H](O)[C@@H](OC)C(=O)[C@H](C)C[C@H](C)/C=C/C=C/C=C/1C [rapamycin]
- in vivo release rate compared with mycophenolic acid ([4]; PVDF basecoat six hundred micrograms, PVDF topcoat two hundred micrograms, porcine): slower release rate than that of mycophenolic acid

SMILES: CC[C@@]1(O)C(=O)OCc2c1cc1n(c2=O)Cc2cc3c(CN(C)C)c(O)ccc3nc2-1 [topotecan]
- cytotoxicity in a separate cell viability assay (cell viability; concentrations up to one micromolar): non-cytotoxic
- effect of addition to cells treated with rapamycin on percent inhibition ([2]; topotecan 18.8 to 300 nanomolar): increases the percent inhibition of rapamycin alone

SMILES: CC(/C=C/C(=O)NO)=C\[C@@H](C)C(=O)c1ccc(N(C)C)cc1 [trichostatin A]
- IC50 ([7]; human coronary artery smooth muscle cells, read-out: anti-proliferative IC50): ~6 nM
- inhibition of human coronary artery smooth muscle cell proliferation ([7]; in vitro cell culture): completely inhibit
- anti-proliferative IC50 (tumor cell lines): low nM range
